Entries after “also recorded” stand apart in the source; their conditions may differ.
Legend:
[1] = In vivo IV dosing in CrT KO mice: prodrug, d3-Cr and d3-Crn in brain (Table 5); settings: brain, CrT KO mice
Procedure: A creatine prodrug is administered as an intravenous bolus injection to groups of three to six adult male CD1 mice at an appropriate creatine prodrug dose equivalent per kg body weight. Animals are conscious at the time of the experiment. Blood samples (0.3 mL) are obtained via a jugular vein cannula at intervals over 8 hours following IV dosing. Blood is processed into plasma, then the plasmais immediately frozen at −80° C. until analyzed by LC-MS/MS. Samples may also be taken form the CSF or other appropriate biological fluid. Brains were collected and flash frozen immediately in liquid nitrogen. Brains were homogenized in 100 mM KPI buffer with a cocktail of anti-proteases on the same day as the sample preparation required for LC-MS/MS analysis.
Several prodrugs with either free COOH group and ester linkage and macrocycles were selected for IV dosing in animal study to assess PK and d3-Cr release in brain in vivo. Prodrugs were IV dosed in CrT KO mice at 10, 15, or 25 mg/kg in animal studies. Mouse brain homogenates (MBH) were prepared from brains collected from mice after dosing. Levels of prodrug, d3-Cr and d3-Crn were quantified in brain and expressed in brain concentration (for macrocycle prodrugs) or AUC (for linear prodrugs) over time. Very few prodrugs were detected in MBH.

[2] = biological target: T1, recombinant human FAAH enzyme (rFAAH) (Homo sapiens, UniProt O00519); test: Direct prodrug cleavage with recombinant human FAAH enzyme (rFAAH): d3-Cr release and d3-Crn cyclization; type: biochemical; settings: 200 μM prodrug, 3 h, % of nominal input; for Prodrug Cleavage rFAAH net d3-Cr release: negative control subtracted
T1 sequence (O00519 1-579): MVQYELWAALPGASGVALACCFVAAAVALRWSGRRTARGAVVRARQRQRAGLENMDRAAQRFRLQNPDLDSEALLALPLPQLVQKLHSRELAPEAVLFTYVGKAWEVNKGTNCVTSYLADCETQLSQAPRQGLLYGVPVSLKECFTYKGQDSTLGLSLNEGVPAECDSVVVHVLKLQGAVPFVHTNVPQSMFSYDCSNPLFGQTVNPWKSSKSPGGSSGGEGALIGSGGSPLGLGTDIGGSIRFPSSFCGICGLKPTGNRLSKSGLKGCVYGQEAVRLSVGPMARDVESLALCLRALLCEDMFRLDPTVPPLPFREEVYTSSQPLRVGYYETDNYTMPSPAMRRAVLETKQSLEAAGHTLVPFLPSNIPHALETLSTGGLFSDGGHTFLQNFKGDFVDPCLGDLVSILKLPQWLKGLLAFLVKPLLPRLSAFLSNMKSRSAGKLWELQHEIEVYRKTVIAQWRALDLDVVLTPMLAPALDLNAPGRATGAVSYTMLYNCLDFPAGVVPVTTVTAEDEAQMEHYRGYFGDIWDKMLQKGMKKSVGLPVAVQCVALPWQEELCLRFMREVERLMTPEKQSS
Procedure: (§1) For assessment of the ability of prodrugs to release creatine, and to release creatine preferentially to unwanted cyclization to creatinine, d3-labeled (deuterium labeled methyl group) prodrugs are incubated with brain homogenates (e.g., mouse, human) specially prepared to preserve FAAH activity or with rFAAH for direct cleavage study. The use of d3-labelled prodrugs is essential in order to distinguish prodrug-derived creatine (d3-creatine) from high concentrations of endogenous (non-labeled) creatine. […] Prodrugs are tested at final concentrations of 20 μM and 200 μM. Approximately 3-4 mg of homogenate is used for each reaction. Co-factor (NADPH) is included at a final concentration of 1 mM. FAAH activity is confirmed by conversion of 7-amino-4-methyl Coumarin-Arachidonamide to 7-amino-4-methyl Coumarin by fluorescent assay. Negative controls include incubations without brain homogenate/rFAAH (but with NADPH) or 65° C. heat inactivated brain homogenate/rFAAH to assess non-enzymatic prodrug cleavage under the conditions of the assay and FAAH inhibitor […] at the concentration of 1 μM. Prodrug incubations are prepared by addition of 8 μL of prodrug stock solution (500 or 5000 μM in DMSO or DMSO/methanol) to assay buffered, followed by addition of brain homogenate/rFAAH. […] The samples are centrifuged at 15890×g for 10 minutes at 4° C., followed by transfer of the supernatants for storage at −20° C. pending LC-MS/MS analysis. Sample supernatants are analyzed by LC-MS/MS for determination of d3-prodrug, d3-creatine and d3-creatinine levels.
(§2) Deuterated creatine prodrugs were tested in 3 different in vitro assays to assess d3-creatine (d3-Cr) release and cyclization to form d3-creatinine (d3-Crn). These assays were 1) direct cleavage with recombinant human FAAH enzyme (rFAAH), 2) cleavage in mouse brain homogenates (MBH), and 3) human brain homogenates (HBH).
(§3) Creatine prodrug cleavage efficiency was determined by percentage of net d3-Cr release in μM (positive reaction subtracted from negative control of no brain homogenate/rFAAH or inactivated brain homogenate/rFAAH) over nominal input concentration of 200 μM prodrug at 3 h. Propensity for creatinine cyclization was determined by percentage of d3-Crn generated in μM in positive reaction over nominal input concentration of 200 μM prodrug at 3 h.

[3] = Prodrug cleavage in human brain homogenates (HBH): d3-Cr release and d3-Crn cyclization; type: in vitro ADME; settings: for Prodrug Cleavage Human BH d3-Crn release / Prodrug Cleavage Human BH net d3-Cr release: 200 μM prodrug, 3 h, % of nominal input; for Prodrug Cleavage Human BH net d3-Cr release: negative control subtracted
Procedure: as §1, §2, §3

[4] = Chemical stability in simulated gastric fluid (SGF) without pepsin; type: physicochemical; settings: Table 2A, 50 μM prodrug
Outline: (§4)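 Incubations used 50 μM compound at 37 °C in phosphate buffered saline, fasted simulated intestinal fluid without pancreatin, or fasted simulated gastric fluid without pepsin.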

[5] = Chemical stability in phosphate buffered saline (PBS); type: physicochemical; settings: Table 2A, 50 μM prodrug
Outline: as §4

[6] = Chemical stability in simulated intestinal fluid (SIF) without pancreatin; type: physicochemical; settings: Table 2A, 50 μM prodrug
Procedure: Chemical stability of creatine prodrugs in phosphate buffered saline (PBS), simulated intestinal fluid (SIF) without pancreatin, simulated gastric fluid (SGF) without pepsin were determined by LC-UV, LC-CAD, LC-UV-CAD or LC-MS/MS as appropriate. Creatine prodrugs of the present disclosure (50 μM) were incubated at 37° C. according to described protocols and prodrug levels were compared between t=0, t=15, t=60, and t=120 mins by peak area ratio to determine the percentage remained at t=120 mins (2 h).
Protocol for PBS, SIF and SGF stability for screening:
Prodrugs (50 μM) were incubated in PBS, FaSSIF (Biorelevant) or FaSSGF (Biorelevant) at 37° C.

ARPE-19 cells = test: Creatine prodrug uptake and d3-creatine release in ARPE-19 cells (Table 4A); type: cell-based, human; settings: 50 μM, 6 h, cytosol fraction, corrected for total protein
Procedure: At the end of the incubation, supernatant will be collected from each well to assess prodrug recovery. Cells are then washed 3× with PBS. Plates, prodrugs in supernatant, prodrugs in serum-free medium are stored at −80° C. until harvest (within 5 days). On the day of extraction, 130 uL of lysis buffer (10 mM Tris pH 7.4) with EDTA-free protease inhibitors is added to each well and cells are removed using a cell scraper. Lysates are further homogenized using a handheld pestle and then centrifuged at 16,000 g, […], for 10 minutes to collect cytosol fraction. Pellets will be stored at −80° C. until further analysis. A 4× volume of stop solution (80% ACN/20% water) will be added to the cytosol fraction, supernatant and medium. Samples will be centrifuged at 15,890 g (13,000 rpm) at 4° C. for 10 mins. Supernatant will be collected and stored at −80° C. within 5 days prior to LC-MS/MS analysis. Dosing solutions for each prodrug (10 μM) will be assayed to verify concentration. Cells alone with vehicle will serve as controls to assess background signal for LC-MS/MS. Two independent runs of experiment will be conducted.
Nine fatty acid amide creatine prodrugs were tested in human ARPE-19 cells to assess prodrug uptake and d3-Cr release inside the cells. 50 μM of prodrug was incubated in culture medium with the cells and the cells were harvested at 6 h. Quantitation of prodrugs, d3-Cr (d3-creatine) and d3-Cm (d3-creatinine) in the cytosol fraction was corrected for total protein concentration.

[7] = d3-Creatine and d3-creatinine concentration in CrT KO mice brain after IV bolus dose (FIGS. 3 and 4, Table 6); type: in vivo; settings: CrT KO mice brain, 8 h after IV bolus dose
Procedure: The brain concentrations of d3-creatine and d3-creatinine was measured in CrT KO mice following 10 mg/kg single dose IV bolus dose of compound 14 and 15 (FIGS. 3 and 4). As shown by FIG. 3, brain d3-creatine concentration was higher following administration of compound 15 compared to compound 14. […] Without bound to any theory, the macrocyclic compound 15 prodrug reduces d3-creatine cyclization to d3-creatinine when compared to linear compound 14 prodrug.
The concentration of d3-creatine in CrT KO mice brain were also measured for other compounds disclosed in the present application as shown in Table 6. The concentrations of d3-creatine, d3-creatinine and creatine prodrugs are measured by LC-MS/MS. The brain sample is homogenized with 4× (weight to volume) of KPI 100 mM buffer containing anti-proteases and anti-phosphatases (if needed). 50 μl of brain homogenate is then de-proteinized using 4× volume/volume of a solution containing 80% acetonitrile and 20% water with bucetin, d5-Cr (internal standard). The plate is then spun at 4000 rpm, 10 minutes, 4° C. and samples are transferred to a new plate for bioanalysis. Each analyte in each sample was quantitated against a curve in matching biomatrix using an authentic standard.

[8] = in vitro cleavage assays (Table 3A)

Structure (SMILES)	d3-Cr/d3-Crn release ratio in vivo (in words) [1]	Prodrug Cleavage rFAAH d3-Crn release [2] [%]	Prodrug Cleavage rFAAH net d3-Cr release [2] [%]	Prodrug Cleavage Human BH d3-Crn release [3] [%]	Prodrug Cleavage Human BH net d3-Cr release [3] [%]	d3-Cr release in vitro (in words) [3, 8]	d3-Crn (creatinine) cyclization in vitro (in words) [3, 8]	Chemical Stability SGF, no enzyme % T0 at 2 hours at 37 °C. [4] [%]	Chemical Stability PBS % T0 at 2 hours at 37 °C. [5] [%]	Chemical Stability SIF, no enzyme % T0 at 2 hours at 37 °C. [6] [%]	d3-Cr, Cellular Uptake (ARPE-19 cells) [nmol/mg protien]	d3-Crn, Cellular Uptake (ARPE-19 cells) [nmol/mg protien]	prodrug, Cellular Uptake (ARPE-19 cells) [nmol/mg protien]	Concentration of d3-Cr in CrT KO mice brain [7]
Cl.[2H]C([2H])([2H])N(CC(=O)OC(C)C)C(=N)NC(=O)CCCCCCCCCCCC [Compound 10-HCl]	favorable d3-Cr/d3-Crn ratio	217.0	1.2	251.5	4.3	small amount of d3-Cr	predominantly cyclized into creatinine; also recorded: predominantly creatinine cyclization	83	11	46				
[2H]C([2H])([2H])N(CC(=O)[O-])C(=N)NC(=O)CCCCCCCCCCCCC.[Li+] [Compound 7, Lithium 2-(1-trideuteriomethyl-3-tetradecanoylguanidino) Acetate]		1.7	146.0	0.8	50.8			63	90	77	18.6	<0.2	13.1	
[2H]C([2H])([2H])N1CC(=O)OC(CCCCC)CCCCCC(=O)NC1=N (stereo not drawn) [Compound FF, 5-Imino-4-trideuteriomethyl-13-pentyl-1-oxa-4,6-diazacyclotridecane-2,7-dione]														BLOQ

— patent US11332438B2, “Creatine prodrugs, compositions and methods of use thereof” (Ultragenyx Pharmaceutical Inc., priority 2017, dated 2022)
